Values quoted from earlier work in patent publication EP2151446B1, “Process for the preparation of bidentate schiff base ruthenium catalysts containing a salicylaldimine-type ligand” (Rimtec Corporation, priority 2008, dated 2010).

Details: in water

pKb, about 3.69:
O=C([O-])[O-].[Cu+2] [CuCO3]
O=C([O-])[O-].[K+].[K+] [Entry K2CO3]
O=C([O-])[O-].[Li+].[Li+] [Li2CO3]
O=C([O-])[O-].[Na+].[Na+] [Na2CO3]
